Data reported in US12459985B2, “G-protein-coupled receptor internal sensors” (THE REGENTS OF THE UNIVERSITY OF CALIFORNIA, priority 2016, dated 2025).

Biological target: Beta2AR with a cpGFP integrated into the third intracellular loop (Homo sapiens, UniProt P07550)
Conditions: saturating conditions (1 μM drug)

## CNC[C@H](O)c1ccc(O)c(O)c1 [epinephrine]
Time constant of association
  τ½ON: 17.1 s
Time constant of dissociation
  τ½OFF: 235.34 s
